PubChem BioAssay AID248 (DTP/NCI, 2004)
Where “and” joins values, the source holds several entries; their conditions need not be identical. Equal entries are not always repeated. Toxic doses and inconclusive results are not listed.

Test system: L1210 leukemia ip in BDF1 mice, survival T/C
Test: NCI In Vivo Anticancer Drug Screen. Data for tumor model L1210 Leukemia (intraperitoneal) in B6D2F1 (BDF1) mice
Conditions: endpoint: mean survival time, higher = longer survival
Procedure, shortened: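 Mice bearing the transplanted tumor received compound or vehicle. Survival of the treated group was divided by that of the vehicle-treated control group to give the ratio.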

[1] = dose: 100.0 mg/kg/injection, schedule: Q01DX009 (ip), vehicle: Klucel (hydroxypropylcellulose) (HPC)
[2] = dose: 200.0 mg/kg/injection, schedule: Q01DX009 (ip), vehicle: Klucel (hydroxypropylcellulose) (HPC)
[3] = dose: 400.0 mg/kg/injection, schedule: Q01DX009 (ip), vehicle: Klucel (hydroxypropylcellulose) (HPC)
[4] = dose: 50.0 mg/kg/injection, schedule: Q01DX001 (ip), vehicle: saline
[5] = dose: 100.0 mg/kg/injection, schedule: Q01DX001 (ip), vehicle: saline
[6] = dose: 200.0 mg/kg/injection, schedule: Q01DX001 (ip), vehicle: saline
[7] = dose: 400.0 mg/kg/injection, schedule: Q01DX001 (ip), vehicle: saline
[8] = dose: 100.0 mg/kg/injection, schedule: Q04DX003 (ip), vehicle: Klucel (hydroxypropylcellulose) (HPC)
[9] = dose: 200.0 mg/kg/injection, schedule: Q04DX003 (ip), vehicle: Klucel (hydroxypropylcellulose) (HPC)
[10] = dose: 400.0 mg/kg/injection, schedule: Q04DX003 (ip), vehicle: Klucel (hydroxypropylcellulose) (HPC)
[11] = dose: 100.0 mg/kg/injection, schedule: Q01DX009 (ip), vehicle: saline with Tween-80
[12] = dose: 100.0 mg/kg/injection, schedule: Q04DX003 (ip), vehicle: saline
[13] = dose: 200.0 mg/kg/injection, schedule: Q01DX009 (ip), vehicle: saline with Tween-80
[14] = dose: 400.0 mg/kg/injection, schedule: Q01DX009 (ip), vehicle: saline with Tween-80
[15] = dose: 100.0 mg/kg/injection, schedule: Q04DX003 (ip), vehicle: saline with Tween-80
[16] = dose: 50.0 mg/kg/injection, schedule: Q01DX009 (ip), vehicle: saline with Tween-80
[17] = dose: 100.0 mg/kg/injection, schedule: Q01DX009 (ip), vehicle: saline
[18] = dose: 200.0 mg/kg/injection, schedule: Q01DX009 (ip), vehicle: saline

## Cc1cccc(NC(=O)C(Br)C(Br)c2ccccc2)c1C (centres undefined)
[1]
  T/C: 94 % of control
[2]
  T/C: 105 % of control
[3]
  T/C: 105 % of control

## CC(C)c1cc(C(C)C)c(S(=O)(=O)Cl)c(C(C)C)c1
[4]
  T/C: 98 % of control
[5]
  T/C: 95 % of control
[6]
  T/C: 95 % of control
[7]
  T/C: 98 % of control

## CC1CNC(=S)S1 (centres undefined)
[1]
  T/C: 105 % of control
[8]
  T/C: 107 % of control
[2]
  T/C: 100 % of control
[9]
  T/C: 102 % of control
[10]
  T/C: 102 % of control

## O=c1ccn(Cc2ccccc2)c(SCc2ccccc2)n1
[4]
  T/C: 105 % of control
dose: 50.0 mg/kg/injection, schedule: Q01DX009 (ip), vehicle: Klucel (hydroxypropylcellulose) (HPC)
  T/C: 102 % of control
[5]
  T/C: 109 % of control
[1]
  T/C: 95 % of control
[6]
  T/C: 91 % of control
[2]
  T/C: 98 % of control
[7]
  T/C: 105 % of control

## CC[N+](CC)(CC)Cc1ccccc1 (tested in a mixture with another compound)
dose: 6.25 mg/kg/injection, schedule: Q01DX009 (ip), vehicle: saline
  T/C: 97 % of control
dose: 12.5 mg/kg/injection, schedule: Q01DX009 (ip), vehicle: saline
  T/C: 103 % of control
dose: 25.0 mg/kg/injection, schedule: Q01DX001 (ip), vehicle: saline
  T/C: 96 % of control
dose: 25.0 mg/kg/injection, schedule: Q01DX009 (ip), vehicle: saline
  T/C: 95 % of control and 108 % of control
dose: 25.0 mg/kg/injection, schedule: Q04DX003 (ip), vehicle: saline
  T/C: 111 % of control and 96 % of control
[4]
  T/C: 112 % of control
dose: 50.0 mg/kg/injection, schedule: Q04DX003 (ip), vehicle: saline
  T/C: 102 % of control and 104 % of control
[5]
  T/C: 98 % of control and 106 % of control
[11]
  T/C: 92 % of control
[12]
  T/C: 88 % of control
[13]
  T/C: 96 % of control
[14]
  T/C: 92 % of control

## CCCC(O)(CCC)CC1=NC(C)(C)CO1
dose: 100.0 mg/kg/injection, schedule: Q04DX003 (ip), vehicle: saline sonified
  T/C: 87 % of control
dose: 200.0 mg/kg/injection, schedule: Q04DX003 (ip), vehicle: saline sonified
  T/C: 98 % of control
dose: 400.0 mg/kg/injection, schedule: Q04DX003 (ip), vehicle: saline sonified
  T/C: 95 % of control

## O=C(O)CCBr
[5]
  T/C: 93 % of control
[6]
  T/C: 104 % of control

## CN1CCN=C1c1ccc(NC(=O)c2ccc(C(=O)Nc3ccc(C4=NCCN4C)cc3)c(Cl)c2)cc1
dose: 1.5 mg/kg/injection, schedule: Q01DX Z (ip), vehicle: water
  T/C: 101 % of control
dose: 3.0 mg/kg/injection, schedule: Q01DX Z (ip), vehicle: water
  T/C: 103 % of control
dose: 6.0 mg/kg/injection, schedule: Q01DX Z (ip), vehicle: water
  T/C: 119 % of control

## COC1OC(CI)C(O)C(O)C1O (centres undefined)
[5]
  T/C: 109 % of control
[6]
  T/C: 109 % of control
[7]
  T/C: 120 % of control

## CCC(C)C(CN)(CCN(C)CC)c1cccc2ccccc12 (centres undefined)
[15]
  T/C: 90 % of control

## NC(N)=N/N=C/c1c[nH]c2ccc(OCc3ccccc3)cc12
dose: 15.0 mg/kg/injection, schedule: Q01DX Z (ip), vehicle: methylcellulose (MC)
  T/C: 94 % of control
dose: 15.0 mg/kg/injection, schedule: Q01DX Z (oral), vehicle: methylcellulose (MC)
  T/C: 90 % of control
dose: 30.0 mg/kg/injection, schedule: Q01DX Z (ip), vehicle: methylcellulose (MC)
  T/C: 96 % of control
dose: 30.0 mg/kg/injection, schedule: Q01DX Z (oral), vehicle: methylcellulose (MC)
  T/C: 87 % of control

## COc1c2c(cc3c(C)cc(=O)n(C)c13)c(C)cc(=O)n2C
[8]
  T/C: 99 % of control
[9]
  T/C: 92 % of control
[10]
  T/C: 101 % of control

## O=C1C=C(N2CC2)C(=O)C=C1N1CC1
dose: 0.62 mg/kg/injection, schedule: Q01DX001 (ip), vehicle: other
  T/C: 105 % of control
dose: 1.25 mg/kg/injection, schedule: Q01DX001 (ip), vehicle: other
  T/C: 117 % of control
dose: 2.5 mg/kg/injection, schedule: Q01DX001 (ip), vehicle: other
  T/C: 107 % of control

## COc1ccc(C)cc1NC(=S)NC(=O)c1cc([N+](=O)[O-])cc([N+](=O)[O-])c1
[1]
  T/C: 97 % of control
[8]
  T/C: 95 % of control
[2]
  T/C: 90 % of control
[9]
  T/C: 100 % of control
[3]
  T/C: 95 % of control
[10]
  T/C: 97 % of control

## CC1(C)CCOc2ccccc21
[16]
  T/C: 88 % of control
[11]
  T/C: 94 % of control

## O=CNNC(=O)c1cnccn1
[17]
  T/C: 104 % of control
[12]
  T/C: 103 % of control
dose: 177.0 mg/kg/injection, schedule: Q01DX009 (ip), vehicle: saline
  T/C: 117 % of control
[18]
  T/C: 115 % of control
dose: 200.0 mg/kg/injection, schedule: Q04DX003 (ip), vehicle: saline
  T/C: 97 % of control
dose: 266.0 mg/kg/injection, schedule: Q01DX009 (ip), vehicle: saline
  T/C: 114 % of control
dose: 400.0 mg/kg/injection, schedule: Q04DX003 (ip), vehicle: saline
  T/C: 120 % of control

## Cc1ccc(S(=O)(=O)N(CCCc2c(C)nc(N)[nH]c2=O)Cc2ccc([N+](=O)[O-])cc2)cc1
dose: 75.0 mg/kg/injection, schedule: Q01DX001 (ip), vehicle: Klucel (hydroxypropylcellulose) (HPC)
  T/C: 102 % of control
dose: 150.0 mg/kg/injection, schedule: Q01DX001 (ip), vehicle: Klucel (hydroxypropylcellulose) (HPC)
  T/C: 97 % of control
dose: 300.0 mg/kg/injection, schedule: Q01DX001 (ip), vehicle: Klucel (hydroxypropylcellulose) (HPC)
  T/C: 103 % of control

## Nc1nc(N)c2c(Cl)c(CNc3ccc(C(=O)NC(CCCC(=O)O)C(=O)O)cc3)ccc2n1 (centres undefined)
dose: 1.0 mg/kg/injection, schedule: Q01DX009 (ip), vehicle: saline
  T/C: 170 % of control
dose: 2.0 mg/kg/injection, schedule: Q01DX009 (ip), vehicle: saline
  T/C: 150 % of control and 152 % of control
dose: 4.0 mg/kg/injection, schedule: Q01DX009 (ip), vehicle: saline
  T/C: 178 % of control and 206 % of control

## O=C(O)C1(c2ccccc2)OCCO1
[11]
  T/C: 95 % of control
[13]
  T/C: 94 % of control
[14]
  T/C: 95 % of control

## CCCNCC1OC(OC)C2OC(C)(C)OC12 (centres undefined)
dose: 0.78 mg/kg/injection, schedule: Q01DX009 (ip), vehicle: saline
  T/C: 100 % of control
dose: 1.56 mg/kg/injection, schedule: Q01DX009 (ip), vehicle: saline
  T/C: 96 % of control
dose: 3.12 mg/kg/injection, schedule: Q01DX009 (ip), vehicle: saline
  T/C: 98 % of control
dose: 100.0 mg/kg/injection, schedule: Q01DX005 (ip), vehicle: saline
  T/C: 99 % of control
[17]
  T/C: 88 % of control
dose: 200.0 mg/kg/injection, schedule: Q01DX005 (ip), vehicle: saline
  T/C: 106 % of control
[18]
  T/C: 91 % of control

## CN(C)c1ccc(/C=N/NC(=O)c2ccc(O)cc2)c(Cl)c1
dose: 25.0 mg/kg/injection, schedule: Q01DX009 (ip), vehicle: saline with Tween-80
  T/C: 97 % of control and 103 % of control
dose: 50.0 mg/kg/injection, schedule: Q01DX001 (ip), vehicle: saline with Tween-80
  T/C: 86 % of control
[16]
  T/C: 102 % of control and 113 % of control
dose: 100.0 mg/kg/injection, schedule: Q01DX001 (ip), vehicle: saline with Tween-80
  T/C: 88 % of control
dose: 100.0 mg/kg/injection, schedule: Q04DX002 (ip), vehicle: saline with Tween-80
  T/C: 97 % of control and 98 % of control
[15]
  T/C: 104 % of control
dose: 200.0 mg/kg/injection, schedule: Q01DX001 (ip), vehicle: saline with Tween-80
  T/C: 94 % of control
dose: 200.0 mg/kg/injection, schedule: Q04DX002 (ip), vehicle: saline with Tween-80
  T/C: 97 % of control and 91 % of control
dose: 200.0 mg/kg/injection, schedule: Q04DX003 (ip), vehicle: saline with Tween-80
  T/C: 87 % of control
[14]
  T/C: 92 % of control
dose: 400.0 mg/kg/injection, schedule: Q04DX002 (ip), vehicle: saline with Tween-80
  T/C: 94 % of control and 90 % of control
dose: 400.0 mg/kg/injection, schedule: Q04DX003 (ip), vehicle: saline with Tween-80
  T/C: 95 % of control

## Nc1c(Br)cc2c(c1Br)C(=O)c1ccccc1-2
dose: 100.0 mg/kg/injection, schedule: Q01DX001 (ip), vehicle: carboxymethylcellulose (CMC)
  T/C: 98 % of control
dose: 200.0 mg/kg/injection, schedule: Q01DX001 (ip), vehicle: carboxymethylcellulose (CMC)
  T/C: 109 % of control
dose: 400.0 mg/kg/injection, schedule: Q01DX001 (ip), vehicle: carboxymethylcellulose (CMC)
  T/C: 102 % of control
